Experiment: Antioxidant activity assessed as hydroxyl radical scavenging activity
Type: functional

| Structure (SMILES) | IC50 [µM] |
| --- | --- |
| O=c1c(O)c(-c2ccc(O)c(O)c2)oc2cc(O)cc(O)c12 [QUERCETIN] | 110 |
| C=C1C[C@@]23CC[C@H]4[C@@](C)(CCC[C@@]4(C)C(=O)O[C@@H]4O[C@H](CO)[C@@H](O)[C@H](O)[C@H]4O)[C@@H]2CC[C@]1(O[C@@H]1O[C@H](CO)[C@@H](O)[C@H](O)[C@H]1O[C@@H]1O[C@H](CO)[C@@H](O)[C@H](O)[C@H]1O)C3 [STEVIOSIDE] | 1500 |

— ChEMBL document CHEMBL2390831, “Steviol glycosides: chemical diversity, metabolism, and function” (J Nat Prod, 2013)
